Here are results for four molecules from article PMC5602898, “Ornithine uptake and the modulation of drug sensitivity in Trypanosoma brucei” (FASEB journal : official publication of the Federation of …, 2017).

One data set deals with T1, TbAAT2-4 (Trypanosoma brucei, UniProt Q57Y06).
T1 construct: gene Tb04.1D20.560; full-length ORF amplified from T. brucei 427 genomic DNA, vector pDR197, expressed in Saccharomyces cerevisiae 22Δ8AA; no tag told
Description: competition of radiolabelled histidine uptake in S. cerevisiae […]Δ8AA. The format is cell-based. Particulars: 200 μM histidine, 2 mM competitor, pH 5.5, 30 °C.

In data set [1] the test system is N[C@@H](Cc1c[nH]cn1)C(=O)O. Briefly: cells, lysate or membranes. As to conditions: L-[3H]histidine, labelled compound, 50 mM potassium phosphate pH 5.5, 0.6 M sorbitol, 100 mM glucose preincubation, 30 °C, empty-vector uptake subtracted.
Substrate in data set [2]: NCCC[C@H](N)C(=O)O
Briefly: cells, lysate or membranes. As to conditions: L-[3H]ornithine, labelled compound, 50 mM potassium phosphate pH 5.5, 0.6 M sorbitol, 100 mM glucose preincubation, 30 °C, empty-vector uptake subtracted.

T1 sequence (Q57Y06 entry or part of it): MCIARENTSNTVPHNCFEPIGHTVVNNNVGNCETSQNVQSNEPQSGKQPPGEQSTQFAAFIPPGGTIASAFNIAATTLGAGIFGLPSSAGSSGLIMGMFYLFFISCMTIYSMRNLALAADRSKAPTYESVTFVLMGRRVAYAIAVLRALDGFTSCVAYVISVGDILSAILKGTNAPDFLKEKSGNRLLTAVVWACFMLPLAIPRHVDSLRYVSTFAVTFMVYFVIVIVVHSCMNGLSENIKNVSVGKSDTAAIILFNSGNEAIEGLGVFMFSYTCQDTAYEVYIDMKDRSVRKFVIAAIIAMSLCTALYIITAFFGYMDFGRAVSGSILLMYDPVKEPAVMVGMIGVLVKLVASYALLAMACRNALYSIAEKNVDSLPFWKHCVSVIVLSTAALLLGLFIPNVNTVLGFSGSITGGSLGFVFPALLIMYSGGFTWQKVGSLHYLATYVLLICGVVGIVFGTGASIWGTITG

Turning to `N=C(N)NCCC[C@H](N)C(=O)O` [arginine], the “% of control uptake at 2 mM” value at TbAAT2-4 is “TbAAT2-4-mediated histidine uptake was inhibited by several amino acids, including arginine and lysine”.

On to “TbAAT2-4 (Trypanosoma brucei brucei TREU927)”, for which, in data set [1], the Km – broadly, the concentration of substrate that gives half-maximal velocity – turned out to be 20.5 ± 8.6 µM.

For the molecule `NCCCC[C@H](N)C(=O)O` [lysine], the “% of control uptake at 2 mM” value on TbAAT2-4 (also supports yeast growth on lysine) was “TbAAT2-4-mediated histidine uptake was inhibited by several amino acids, including arginine and lysine”.

B1: TbAAT10-1 (Trypanosoma brucei brucei TREU927) (protein)
chain: MSNVRGNITPAVVYASNEPNALNASDDGIKNYEAYEDIQSNNSESKFAPFSKLSKKIAAVIPPGGIFASAFNIAATTLGAGIFGLPSTANGSGLVMGILYLVIINCMTIYSMYNLALAAERSKALTYEGVTFVVLGRWAAYAIAAVRAFDGFTSCIAYVISVGDIFSSILKGTDAPEFWKGNTGNRLLTALLWLCCMLPLVIPRHVDSLRHVSTCAVTFMVYFVIVIVVHSCLNGLPENIKDVSVGKSDTAAIILFNSGNAAVEGLGVFMFSYTCQDTAYEIYMDMKDRSVRKFVISSAIAMCMCTVLYILTVFFGYMDFGRDVTGSILLMYDPVNEPAVMVGMIGVLVKLIASYALLAMACRNALYSIAGKNADVLPFWKHCASVVTLSVAALVLGLFIPKVNTVLGFAGSITGGSLGYIFPSLLLMYSGGFTWQRVGPFHYLVAYGLLISGVVGVVFGTGATIWGTIVG
With B1, the Km in data set [2] came to 4.3 ± 1.5 µM.
